The test system of series [1] is unresectable gastro-entero-pancreatic or pulmonary NETs. As to the kind of experiment: Tumor response by RECIST 1.1 in NET patients treated with SNX-5422 plus everolimus. The series is classed as in vivo, human. Here is the method:
(§1) Starting on Day 1, SNX-5422 was dosed once every other day for 21 days (11 doses), followed by a 7-day drug free period. SNX-5422 was dosed each morning starting at 50 mg/m^2 with standard 3+3 dose escalation. The actual dose administered was based on body surface area, calculated using body weight measured at the start of each cycle and height at Screening. The calculated dose was then rounded to the nearest mg on dosing chart. Everolimus was dosed at 10 mg once daily in the evening (at least 8 hours after SNX-5422 dosing) for 28 days, with dose de-escalation allowed based on EVR toxicity. Eligible patients were to have unresectable gastro-entero-pancreatic or pulmonary NETs and less than 5 prior lines of anti-cancer treatment.
Tumor response was assessed at the end of every 2 cycles±2 weeks, using RECIST 1.1 criteria (Eisenhauer et al. European Journal of Cancer 45:228-247 (2009)). Partial Response (PR) was defined as at least a 30% decrease in the sum of diameters of target lesions, taking as reference the baseline sum diameters. Progressive Disease (PD) was defined as at least a 20% increase in the sum of diameters of target lesions, taking as reference the smallest sum on study. Stable disease is noted where there is no sufficient shrinkage to qualify for PR or no sufficient increase to qualify for PD.

A short description of series [2]: Tolerability: treatment-emergent adverse events and MTD, SNX-5422 dose escalation plus everolimus in NET patients. The format is in vivo. The note with it: in combination with everolimus, once every other day for 21 days of 28-day cycle. Here is the method:
as §1
Results: Seventeen patients (10 male, 7 female; median age 59 years) with NETs were enrolled in the study. The maximum tolerated dose (MTD) of SNX-5422 was determined to be 75 mg/m^2 in combination with everolimus.
Tolerability: Most frequent (i.e., occurring in 6 or more patients overall) Treatment-Emergent Adverse Events (TEAEs) are provided in Table 1. All patients reported at least one TEAE. Diarrhea was the most commonly reported TEAE, occurring in 80% of patients overall. In 13 patients (65%), the event was considered related to the combination of SNX-5422 and everolimus. […]

Series [3] has as its system advanced, non-functional neuroendocrine tumours of the lung or gastrointestinal tract. The note with it: everolimus only, without SNX-5422; patients with NETs; RADIANT-4; cited from earlier work.
Setting [4] is: of 17 NET patients evaluable, SNX-5422 plus everolimus, RECIST 1.1.
Setting [5] is: patients previously treated with 2 or less prior lines of treatment (FIG. 2), SNX-5422 plus everolimus.
[6] abbreviates: six patients, GI tract/lung/unknown carcinoid, ≤2 prior lines and Ki67<20% (FIG. 4), SNX-5422 plus everolimus.

The text below walks through data of US20190269656A1, “Combination Therapies Using Indazolylbenzamide Derivatives for the Treatment of Cancer” (ESANEX, INC., priority 2016, published 2019).

Take `CC1(C)CC(=O)c2c(C(F)(F)F)nn(-c3ccc(C(N)=O)c(N[C@H]4CC[C@H](OC(=O)CN)CC4)c3)c2C1` [SNX-5422, trans-4-({2-(aminocarbonyl)-5-[6,6-dimethyl-4-oxo-3-(trifluoromethyl)-4,5,6,7-tetrahydro-1H-indazol-1-yl]phenyl}amino)cyclohexyl glycinate]: the “subjects receiving ongoing treatment for over 2 years (i.e., ≥30 cycles)” value in series [1] (combination of SNX-5422 plus everolimus, NET patients) stood at 2 subjects. Further, in series [1] (setting [4]), the “partial response as best response, % of patients” value stood at 18%; the “partial response as best response, number of patients” value worked out at 3 patients; the “progressive disease as best response, % of patients” value is reported as 18%; the “progressive disease as best response, number of patients” value stood at 3 patients. In addition, in series [1] (setting [4]), the “stable disease as best response, % of patients” value is recorded as 64% and the “stable disease as best response, number of patients” value came out at 11 patients. For the same compound, the tumor reduction in series [1] (one patient with GI NET, 30 treatment cycles, SNX-5422 plus everolimus) amounted to 31%. In series [1] (one patient with lung carcinoid, 10 treatment cycles, SNX-5422 plus everolimus), the tumor reduction is 51%. Moreover, in series [1] (one patient with unknown carcinoid, 35 treatment cycles, SNX-5422 plus everolimus), the tumor reduction was found to be 36%. Moreover, the “reduction in target lesion size” value in series [1] (one patient, SNX-5422 plus everolimus) turned out to be 51%. Moreover, the “tumor measurement, second diameter (CT scan left iliac adenopathy)” value in series [1] (patient with pulmonary carcinoid NET, after 4 cycles of treatment, baseline 4.25 cm, SNX-5422 plus everolimus) amounted to 2.42 cm. For the same compound, the “tumor measurement, first diameter (CT scan left iliac adenopathy)” value in series [1] (patient with pulmonary carcinoid NET, after 4 cycles of treatment, baseline 6.51 cm, SNX-5422 plus everolimus) is reported as 3.75 cm. Also, in series [1] (setting [5]), the “partial response as best response, number of patients” value came to 3 patients; the “progressive disease as best response, number of patients” value is 1 patients; the “stable disease as best response, number of patients” value was 7 patients. In series [1] (setting [6]), the overall response rate came out at 50% and the “partial response, number of patients” value is on record as “three”. Further, the “maximum tolerated dose (MTD)” value in series [2] was 75 mg/m^2.

As to `CO[C@H]1C[C@@H]2CC[C@@H](C)[C@@](O)(O2)C(=O)C(=O)N2CCCC[C@H]2C(=O)O[C@H]([C@H](C)C[C@@H]2CC[C@@H](OCCO)[C@H](OC)C2)CC(=O)[C@H](C)/C=C(\C)[C@@H](O)[C@@H](OC)C(=O)[C@H](C)C[C@H](C)/C=C/C=C/C=C/1C` [everolimus, (1R,9S,12S,15R,16E,18R,19R,21R,23S,24E,26E,28E,30S,32S,35R)-1,18-dihydroxy-12-{(1R)-2-[(1 S,3R,4R)-4-(2-hydroxyethoxy)-3-methoxycyclohexyl]-1-methylethyl}-19,30-dimethoxy-15,17,21,23,29,35-hexamethyl-11,36-dioxa-4-aza-tricyclo[30.3.1.04,9]hexatriaconta-16,24,26,28-tetraene-2,3,10,14,20-pentaone], the “partial response rate, % of patients” value in series [3] is “about 2%”.
